Laboratory results taken from ChEMBL document CHEMBL4219265, “Piperlongumine derivative, CG-06, inhibits STAT3 activity by direct binding to STAT3 and regulating the reactive oxygen species in DU145 prostate carcinoma cells” (Bioorg Med Chem Lett, 2018).

Experiments:
[1] = target: T1, Signal transducer and activator of transcription 3 (Homo sapiens, UniProt P40763); assay: Binding affinity to STAT3 in human DU145 cell lysates assessed as reduction in pronase-induced STAT3 digestion by measuring ratio of STAT3 protein level to GAPDH protein level incubated for 1 hr followed by 0.05% pronase addition for 10 mins by Western blot analysis
T1 sequence (P40763 whole entry): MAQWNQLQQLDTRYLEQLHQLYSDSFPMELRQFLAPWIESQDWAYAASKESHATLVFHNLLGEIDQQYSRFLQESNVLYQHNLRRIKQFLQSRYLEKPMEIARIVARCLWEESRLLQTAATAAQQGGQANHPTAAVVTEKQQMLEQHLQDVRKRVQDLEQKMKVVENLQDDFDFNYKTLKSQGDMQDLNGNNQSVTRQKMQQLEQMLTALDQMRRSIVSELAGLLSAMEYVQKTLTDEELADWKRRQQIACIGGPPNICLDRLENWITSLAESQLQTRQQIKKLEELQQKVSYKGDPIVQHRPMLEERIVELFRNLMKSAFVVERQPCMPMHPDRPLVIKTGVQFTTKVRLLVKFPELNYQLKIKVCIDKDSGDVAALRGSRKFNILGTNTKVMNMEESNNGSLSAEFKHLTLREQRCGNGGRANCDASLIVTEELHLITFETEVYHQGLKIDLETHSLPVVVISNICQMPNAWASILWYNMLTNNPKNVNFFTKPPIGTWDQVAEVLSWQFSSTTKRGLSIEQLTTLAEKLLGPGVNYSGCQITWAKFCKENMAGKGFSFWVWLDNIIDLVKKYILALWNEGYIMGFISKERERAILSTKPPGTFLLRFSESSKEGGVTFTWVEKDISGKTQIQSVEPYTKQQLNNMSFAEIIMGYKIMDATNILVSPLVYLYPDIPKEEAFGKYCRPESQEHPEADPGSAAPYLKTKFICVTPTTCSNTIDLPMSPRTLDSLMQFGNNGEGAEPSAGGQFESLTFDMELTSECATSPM

DU-145 [2] = assay: Growth inhibition of human DU145 cells after 48 hrs by WST-1 assay; assay type: functional; conditions: DU-145, 48 h
[3] = target: T1, Signal transducer and activator of transcription 3; assay: Binding affinity to STAT3 in human DU145 cell lysates assessed as reduction in pronase-induced STAT3 digestion by measuring ratio of STAT3 protein level to GAPDH protein level at 100 uM incubated for 1 hr in absence of pronase by Western blot analysis (reference value: 1)
DU-145 [4] = assay: Cell cycle arrest in human DU145 cells assessed as accumulation at S phase at 5 uM after 48 hrs by flow cytometry (reference value: 6.6%); assay type: functional
[5] = target: T1, Signal transducer and activator of transcription 3; assay: Inhibition of STAT3-induced ERK1/2 phosphorylation in human DU145 cells assessed as ratio of phosphorylated ERK1/2 protein level to GAPDH protein level at 5 uM after 0.5 hrs by Western blot analysis (reference value: 1); assay type: cell-based
[6] = target: T1, Signal transducer and activator of transcription 3; assay: Binding affinity to STAT3 in human DU145 cell lysates assessed as reduction in pronase-induced STAT3 digestion by measuring ratio of STAT3 protein level to GAPDH protein level at 1 uM incubated for 1 hr in absence of pronase by Western blot analysis (reference value: 1)
DU-145 [7] = assay: Cell cycle arrest in human DU145 cells assessed as accumulation at G2/M phase at 5 uM after 12 hrs by flow cytometry (reference value: 18.12%); assay type: functional
DU-145 [8] = assay: Cell cycle arrest in human DU145 cells assessed as accumulation at G0/G1 phase at 5 uM after 48 hrs by flow cytometry (reference value: 24.07%); assay type: functional
[9] = target: T1, Signal transducer and activator of transcription 3; assay: Binding affinity to STAT3 in human DU145 cell lysates assessed as reduction in pronase-induced STAT3 digestion by measuring ratio of STAT3 protein level to GAPDH protein level at 100 uM incubated for 1 hr followed by 0.05% pronase addition for 10 mins by Western blot analysis (reference value: 1)
[10] = target: T1, Signal transducer and activator of transcription 3; assay: Inhibition of STAT3 phosphorylation at Tyr705 residues in human DU145 cells assessed as ratio of phosphorylated STAT3 protein level to GAPDH protein level at 0.1 uM after 24 hrs by Western blot analysis (reference value: 1); assay type: cell-based
[11] = target: T1, Signal transducer and activator of transcription 3; assay: Binding affinity to STAT3 in human DU145 cell lysates assessed as reduction in pronase-induced STAT3 digestion by measuring ratio of STAT3 protein level to GAPDH protein level at 50 uM incubated for 1 hr followed by 0.1% pronase addition for 10 mins by Western blot analysis (reference value: 0.2)
[12] = target: T1, Signal transducer and activator of transcription 3; assay: Inhibition of STAT3 phosphorylation at Tyr705 residues in human DU145 cells assessed as ratio of phosphorylated STAT3 protein level to GAPDH protein level at 5 uM after 24 hrs by Western blot analysis (reference value: 1); assay type: cell-based
DU-145 [13] = assay: Cell cycle arrest in human DU145 cells assessed as accumulation at G0/G1 phase at 5 uM after 12 hrs by flow cytometry (reference value: 24.07%); assay type: functional
[14] = target: T1, Signal transducer and activator of transcription 3; assay: Inhibition of STAT3-induced ERK1/2 phosphorylation in human DU145 cells assessed as ratio of phosphorylated ERK1/2 protein level to GAPDH protein level at 5 uM after 12 hrs by Western blot analysis (reference value: 1); assay type: cell-based
[15] = target: T1, Signal transducer and activator of transcription 3; assay: Binding affinity to STAT3 in human DU145 cell lysates assessed as reduction in pronase-induced STAT3 digestion by measuring ratio of STAT3 protein level to GAPDH protein level at 10 uM incubated for 1 hr followed by 0.05% pronase addition for 10 mins by Western blot analysis (reference value: 1)
LNCaP = assay: Effect on total STAT3 protein level in human LNCAP cells assessed as ratio of STAT3 protein level to GAPDH protein level at 5 uM after 12 hrs by Western blot analysis (reference value: 1); assay type: ADME, cell-based
[16] = target: T1, Signal transducer and activator of transcription 3; assay: Binding affinity to STAT3 in human DU145 cell lysates assessed as reduction in pronase-induced STAT3 digestion by measuring ratio of STAT3 protein level to GAPDH protein level at 50 uM incubated for 1 hr followed by 0.02% pronase addition for 10 mins by Western blot analysis (reference value: 0.6)
DU-145 [17] = assay: Effect on total STAT3 protein level in human DU145 cells assessed as ratio of STAT3 protein level to GAPDH protein level at 5 uM after 12 hrs by Western blot analysis (reference value: 1); assay type: ADME, cell-based; conditions: du-145, 12 h
DU-145 [18] = assay: Effect on total ERK1/2 protein level in human DU145 cells assessed as ratio of ERK1/2 protein level to GAPDH protein level at 5 uM after 6 hrs by Western blot analysis (reference value: 1); assay type: ADME, cell-based; conditions: du-145, 6 h
[19] = target: T1, Signal transducer and activator of transcription 3; assay: Binding affinity to STAT3 in human DU145 cell lysates assessed as reduction in pronase-induced STAT3 digestion by measuring ratio of STAT3 protein level to GAPDH protein level at 10 uM incubated for 1 hr in absence of pronase by Western blot analysis (reference value: 1)
[20] = target: T1, Signal transducer and activator of transcription 3; assay: Binding affinity to STAT3 in human DU145 cell lysates assessed as reduction in pronase-induced STAT3 digestion by measuring ratio of STAT3 protein level to GAPDH protein level incubated for 1 hr in absence of pronase by Western blot analysis
[21] = target: T1, Signal transducer and activator of transcription 3; assay: Inhibition of STAT3-induced ERK1/2 phosphorylation in human DU145 cells assessed as ratio of phosphorylated ERK1/2 protein level to GAPDH protein level at 5 uM after 3 hrs by Western blot analysis (reference value: 1); assay type: cell-based
DU-145 [22] = assay: Induction of intracellular ROS generation in human DU145 cells at 5 uM by DCFH-DA probe based flow cytometry; assay type: functional, cell-based; conditions: TDE = time-dependent effect
DU-145 [23] = assay: Cell cycle arrest in human DU145 cells assessed as accumulation at G2/M phase at 5 uM after 24 hrs by flow cytometry (reference value: 18.12%); assay type: functional
[24] = target: T1, Signal transducer and activator of transcription 3; assay: Binding affinity to STAT3 in human DU145 cell lysates assessed as reduction in pronase-induced STAT3 digestion by measuring ratio of STAT3 protein level to GAPDH protein level at 50 uM incubated for 1 hr followed by 0.01% pronase addition for 10 mins by Western blot analysis (reference value: 0.7)
[25] = target: T1, Signal transducer and activator of transcription 3; assay: Binding affinity to STAT3 in human DU145 cell lysates assessed as reduction in pronase-induced STAT3 digestion by measuring ratio of STAT3 protein level to GAPDH protein level at 50 uM incubated for 1 hr in absence of pronase by Western blot analysis (reference value: 1)
DU-145 [26] = assay: Effect on total ERK1/2 protein level in human DU145 cells assessed as ratio of ERK1/2 protein level to GAPDH protein level at 5 uM after 12 hrs by Western blot analysis (reference value: 1); assay type: ADME, cell-based; conditions: du-145, 12 h

Activity [1]: Dose-dependent effect
GI50 (DU-145 [2]): 900 nM
Ratio [3]: 1.2
Ratio [5]: 1.6
Ratio [6]: 1
Ratio [9]: 2.3
Ratio [10]: 0.9
Ratio [11]: 0.3
Ratio [12]: 0.3
Ratio [14]: 2.3
Ratio [15]: 2.1
Ratio (LNCaP): 1.2
Ratio [16]: 0.6
Ratio (DU-145 [17]): 0.9
Ratio (DU-145 [18]): 1
Ratio [19]: 1.1
Activity [20]: Dose-dependent effect
Ratio [21]: 2
Ratio [24]: 0.6
Ratio [25]: 1.1
Ratio (DU-145 [26]): 0.9
Compound: C=C(C)C(=O)N(Cc1ccc(Br)cc1)C(=O)/C=C/c1cc(OC)c(OC)c(OC)c1
Activity (DU-145 [4]): 6.57%
Activity (DU-145 [7]): 21.05%
Activity (DU-145 [8]): 26.59%
Activity (DU-145 [13]): 38.15%
Activity (DU-145 [22]): Tde
Activity (DU-145 [23]): 22.2%
